Test results taken from PubChem BioAssay AID449750 (Broad Institute, 2010).
Active and inactive are the calls of the source. The rule behind the calls is not given here.

assay: non-covalent RecA intein splicing inhibitors, dose response, biochemical, cell-free, fluorescence, secondary screen (AID 449750)

SMILES	AC50
COc1cc(C(c2c(C)[nH][nH]c2=O)c2c(C)[nH][nH]c2=O)ccc1OC(C)C	12 µM
Cc1ccc(N(C(=O)CCl)C(C(=O)NC2CCCCC2)c2cccnc2)cc1C (stereo unspecified)	1 µM
COc1cc(/C=C2/C(=O)N(c3ccc([N+](=O)[O-])cc3)N=C2N2CCOCC2)ccc1O	31.5 µM
CCOC(=O)c1nnc(-c2cccs2)nc1Oc1ccc(Cl)cc1	> 38 µM (inactive)
CCCC(=O)OCCNc1cc(Sc2nccn2C)c2nonc2c1[N+](=O)[O-]	> 38 µM (inactive)
O=C1CCCC2=C1C1(O)C(=O)c3ccccc3C1(O)O2 (stereo unspecified)	7.79 µM
COc1ccc(N2C(=O)CC(N(CCc3ccccc3)C(=O)/C=C/C(=O)O)C2=O)cc1 (stereo unspecified)	> 38 µM (inactive)
Cc1ccc(C2C(C#N)=C(N)Oc3n[nH]c(-c4ccccc4)c32)o1 (stereo unspecified)	> 38 µM (inactive)
Cn1cnc([N+](=O)[O-])c1S(=O)(=O)c1ccc(Cl)cc1	> 38 µM (inactive)
C/C(CC(=O)Nc1ccccn1)=N\NC(=O)c1ccc(C)cc1	> 38 µM (inactive)
O=C(CSC1=NCCS1)Nc1nc(-c2ccccc2)cs1	30.5 µM
Nc1ccc2nc(N3CCOCC3)sc2c1	> 38 µM (inactive)
COc1cc(NC(C)CCCN)c2ncccc2c1Oc1ccccc1 (stereo unspecified)	15.2 µM
Cc1ccccc1N(Cc1cc(=O)[nH]c2ccccc12)C(=O)CCl	8.32 µM
COC(=O)C(O)(c1c(C)[nH]n(-c2ccccc2)c1=O)C(F)(F)F (stereo unspecified)	5.49 µM
CN1N=C(C(C)(C)C)CC1=O	> 38 µM (inactive)
CCn1nc(/C=C/c2ccccc2)nc2c(=O)n(C)c(=O)nc1-2	0.0666 µM
COC(=O)CC1=NN(c2nc(C)cc(C)n2)C(=O)C1	> 38 µM (inactive)
CCN(CCN(C)C)C(=O)c1ccc2c(c1NCCO)C(=O)c1ccccc1C2=O	> 38 µM (inactive)
Cc1ccc(C2CC(c3cccs3)=NN2C(=O)CCl)cc1 (stereo unspecified)	1.68 µM
Cc1cccn2c(CNCC3(c4ccccc4)CCCC3)c(C(=O)N3CCOCC3)nc12	> 38 µM (inactive)
COc1ccc(-c2c(=O)n(OC)c3ccccc3[n+]2[O-])cc1OC	> 38 µM (inactive)

SMILES	AC50
Cn1c(SCC(=O)NCC2CCCO2)ncc(C(=O)Nc2ccc(F)cc2)c1=O (stereo unspecified)	7.58 µM
c1cncc(CNc2ncnc3sc4c(c23)CCCC4)c1	> 38 µM (inactive)
COC1=CC(=O)C(O)=C(CCCCCCC/C=C/CCCCCCCC2=C(O)C(=O)C=C(OC)C2=O)C1=O	4.64 µM
O=c1c2c([nH]n1-c1ccccc1)CCSC2	36.5 µM
Cc1cc(C)cc(S(=O)(=O)c2cnc3ccccc3n2)c1	> 38 µM (inactive)
COc1ccc(-n2c(C)cc(C(=O)CCl)c2C)cc1	13.6 µM
O=C1c2cc([N+](=O)[O-])ccc2-c2ncccc21	> 38 µM (inactive)
CCS(=O)(=O)c1ncc(Cl)c(C(=O)Nc2ccc(C)cc2)n1	> 38 µM (inactive)
O=C(N/N=C1\C/C(=N\NC(=O)c2ccncc2)c2ccccc21)c1ccncc1	17.3 µM
CCOC(=O)c1c(NC(=O)/C=C/C(=O)O)sc(C)c1-c1ccc(C)c(C)c1	10.7 µM
CC(C)=CCC1=C(OCC(=O)O)C(=O)c2ccccc2C1=O	10.3 µM
COC(=O)N/N=C\c1ccc(OC(=O)c2ccco2)cc1	> 38 µM (inactive)
COc1ccc(C(=O)Nc2ccncc2)cc1[N+](=O)[O-]	> 38 µM (inactive)
Cc1ccccc1CS(=O)(=O)c1nnc([C@H](Cc2ccccc2)NC(=O)OC(C)(C)C)o1	> 38 µM (inactive)
CCCC(=O)OCCNc1cc(Sc2nc3ccccc3[nH]2)c2nonc2c1[N+](=O)[O-]	> 38 µM (inactive)
CC1=NNC(=O)/C1=C\c1cn(-c2ccccc2)nc1-c1ccc(F)cc1	12 µM
S=C(Nc1ccc2nsnc2c1)N1CCCCCC1	9.37 µM
CCC(C)NC(=O)c1c(N)n(Cc2ccc3c(c2)OCO3)c2nc3ccccc3nc12 (stereo unspecified)	26.7 µM
Cc1nc2ccccc2c2c1C(=O)N(C)C2=O	> 38 µM (inactive)
COc1cccc(-c2[nH]nc3c2C(c2ccc(C)o2)C(C#N)=C(N)O3)c1 (stereo unspecified)	26.2 µM
COC(=O)Cc1[nH]nc2c1C(c1c[nH]c3ccccc13)C(C#N)=C(N)O2 (stereo unspecified)	> 38 µM (inactive)
COc1ccc(-c2[nH]nc3c2C(c2ccncc2)C(C#N)=C(N)O3)cc1 (stereo unspecified)	39.9 µM

SMILES	AC50
Cc1ccc(C2C(C#N)=C(N)Oc3nc(-c4ccccc4)[nH]c32)o1 (stereo unspecified)	> 38 µM (inactive)
CC1=NN(c2ccc(N)cc2)C(=O)C1	3.44 µM
Nc1ccccc1S(=O)(=O)NC1=NCCCCC1	> 38 µM (inactive)
CCn1c2ccccc2c2cc(C3C(C#N)=C(N)Oc4n[nH]c(COC)c43)ccc21 (stereo unspecified)	8.48 µM
CN(N)C(=S)Nc1ccc(Cl)cc1	> 38 µM (inactive)
CCCNC(=O)c1nnsc1S(=O)c1ccc(Cl)cc1 (stereo unspecified)	32.9 µM
O=C1N=NC2=C1c1c3ccccc3c(O)n1CC2	3.03 µM
CSc1nnc(NC(=O)c2nc(S(=O)(=O)Cc3ccc(C)cc3)ncc2Cl)s1	> 38 µM (inactive)
COc1nc(N/N=C/c2ccc(-c3ccccc3[N+](=O)[O-])o2)nc(N2CCOCC2)n1	23.2 µM
CC(NC(=O)COC(=O)c1cc(NS(=O)(=O)c2ccc(Cl)c([N+](=O)[O-])c2)ccc1O)C1CC2CCC1C2 (stereo unspecified)	1.67 µM
O=C(CCCN1C(=O)/C(=C/c2cccs2)SC1=S)Nc1ccc(O)cc1	> 38 µM (inactive)
CC1=NN(c2ccccc2)C(=O)C1=C(C)C	15.9 µM
O=c1cc(-c2ccc(F)cc2)[nH][nH]1	17.2 µM
Oc1ccc(Nc2nc(-c3ccc4ccccc4c3)cs2)cc1	> 38 µM (inactive)
Cc1ccc(Sc2ccc(NC(=O)CCl)cc2)cc1C	0.699 µM
CCCCCCCCCCOC(=O)Cn1c(COc2cccc(OC)c2)[n+](C)c2ccccc21	9.12 µM
COC(=O)c1ccccc1Sc1ncnc2onc(C)c12	> 38 µM (inactive)
CCCCCCCCCCOC(=O)Cn1c(COc2ccccc2)[n+](C)c2ccccc21	7.97 µM
Fc1ccc(-[n+]2nc(Nc3ccccc3)sc2-c2c3ccccc3cc3ccccc23)cc1	12.4 µM
Cc1ccc(-n2nc(C)c(NC(=O)CCl)c2C)cc1C	16.1 µM
O=C(CCl)N1CCN2C(=O)c3ccccc3C12c1ccc(Cl)cc1 (stereo unspecified)	7.81 µM
CC(C)(C)c1cc(C(c2cccnc2)N2CCN(CCO)CC2)cc(C(C)(C)C)c1O (stereo unspecified)	17.7 µM

SMILES	AC50
O=C1C(Cl)=C(Nc2ccc3cn[nH]c3c2)C(=O)c2ccccc21	3.75 µM
Cc1cccc(CS(=O)(=O)c2ncc(Cl)c(C(=O)Nc3ccc(F)cc3)n2)c1	> 38 µM (inactive)
COc1cc(/C=C2/C(=O)N(c3cccc(Br)c3)N=C2C)cc(OC)c1O	9.46 µM
Clc1ncnc2scc(C3COc4ccccc4O3)c12 (stereo unspecified)	7.28 µM
O=[N+]([O-])c1cccc(C=Nc2cccc3ccccc23)c1O	> 38 µM (inactive)
COC(=O)C1CN(C#N)N(c2ccc(Cl)cc2)C12c1ccccc1-c1ccccc12 (stereo unspecified)	10.7 µM
CCNC(=O)c1ccccc1-c1nc(-c2ccccc2)no1	> 38 µM (inactive)
CCc1nc(N2CCN(C(=O)CCl)CC2)c2c3c(sc2n1)CC(C)CC3 (stereo unspecified)	2 µM
C/C(=C\c1ccco1)C1C(C#N)=C(N)Oc2n[nH]c(-c3ccccc3)c21 (stereo unspecified)	20.8 µM
CC/C(=C/c1sc2ccc(C)cc2[n+]1CCO)SC	> 38 µM (inactive)
CCc1ccc(S(=O)(=O)/N=C2\C=C(Nc3ccc(C(=O)O)cc3)C(=O)c3ccccc32)cc1	0.348 µM
CCOc1cc(/C=C2\C(=O)N(c3ccc(C(N)=O)cc3)N=C2C)ccc1OC(=O)c1cccs1	2.76 µM
O=C(CCN1C(=O)/C(=C/c2cccs2)SC1=S)Nc1cccc(O)c1	> 38 µM (inactive)
O=c1c2ccccc2nc(/C=C/c2cccnc2)n1CCc1ccccc1	15.9 µM
N=c1c2c(-c3ccccc3)c(-c3ccccc3)n(Cc3ccco3)c2ncn1Cc1ccccc1	5.8 µM
CC1CCCN(C(=O)COc2ccc(NC(=O)c3cccs3)cc2)C1 (stereo unspecified)	> 38 µM (inactive)
CCOc1cc(C2C(C#N)=C(N)Oc3n[nH]c(-c4ccccc4)c32)ccc1O (stereo unspecified)	20.6 µM
COc1ccc(OCc2cc(C(=O)N3CCCC(OC)C3)no2)c2ccccc12 (stereo unspecified)	> 38 µM (inactive)
CCOC(=O)c1c(NC(=O)CCl)sc(C(=O)N(CC)CC)c1C	4.22 µM
O=C(Nc1n[nH]c(C(F)(F)F)n1)c1cccs1	> 38 µM (inactive)
O=C(CSCc1ccc([N+](=O)[O-])cc1)N/N=C/c1cccnc1	> 38 µM (inactive)
O=c1c(Cl)c(Cl)cnn1Cc1ccccc1Cl	36.8 µM

SMILES	AC50
O=C(CCCN1C(=O)/C(=C/c2ccccc2)SC1=S)Nc1ccc(O)cc1	> 38 µM (inactive)
COc1ccc(/C=C(/C#N)C(=O)Nc2ccc(O)cc2)cc1C(=O)O	> 38 µM (inactive)
O=C1C(Nc2cccc(O)c2)=C(N2CCCCC2)C(=O)c2ccccc21	2.93 µM
O=C1C(Cl)=C(NS(=O)(=O)c2ccc([N+](=O)[O-])cc2)C(=O)c2ccccc21	10.3 µM
CC1(CC(=O)N/N=C/c2ccc(OCc3ccc(Cl)cc3Cl)cc2)OCCCO1	11.2 µM
CCOC(=O)CC1=NN(c2ccccc2)C(=O)/C1=C\c1ccc(OC)cc1OC	2.34 µM
CC1=NN(c2ccccc2)C(=O)/C1=C\c1cc(C)n(-c2cccnc2)c1C	> 38 µM (inactive)
Cc1ccc(C(=O)N/N=C/c2ccc(-c3ccccc3[N+](=O)[O-])o2)cn1	9.17 µM
CCCCCCCCCCOC(=O)Cn1c(COc2ccccc2OC)[n+](C)c2ccccc21	7.46 µM
Cc1cc(C(=O)CCl)c(C)n1CC1COc2ccccc2O1 (stereo unspecified)	19.4 µM
COc1ccc(CNC(=O)c2c(C)oc3c2C(=O)c2ccccc2C3=O)cc1	14.3 µM
Cc1[nH]n(-c2ccccc2)c(=O)c1C(c1cccc([N+](=O)[O-])c1)c1c(C)[nH]n(-c2ccccc2)c1=O	8.53 µM
O=C(Nc1ccc(F)cc1)c1nn(-c2ccccc2)c(=O)cc1Cl	22.1 µM
CCOC(=O)C(C#N)C(c1cccnc1)c1c(C)[nH][nH]c1=O (stereo unspecified)	> 38 µM (inactive)
CCc1ccc(NC(=O)c2nc(S(=O)(=O)Cc3ccccc3)ncc2Cl)cc1	> 38 µM (inactive)
Cc1[nH][nH]c(=O)c1C(c1ccc(-c2cccc(Cl)c2)o1)c1c(C)[nH][nH]c1=O	> 38 µM (inactive)
O=C(N/N=C/c1ccc(OC(=O)c2ccco2)cc1)c1ccc[n+]([O-])c1	> 38 µM (inactive)
CCc1oc2ccccc2c1C(=O)c1cc(Br)c(O)c(Br)c1	9.46 µM
